Source: publication PMC8361756, “Treatment of Cardiovascular Dysfunction With PDE5-Inhibitors – Temperature Dependent Effects on Transport and Metabolism of cAMP and cGMP” (Frontiers in Physiology, 2021)
Like-named read-outs stand apart in the source and are kept apart here.

Tests used:
[1] = test system: PDE3; conditions: for IC25–IC75 interval PDE3: concentration needed to increase inhibition from 25% to 75%; for IC50: read-out: IC50 PDE3, 5 μM cAMP, 30 min; for Ki: read-out: Ki PDE3-inhibition, Cheng-Prusoff from IC50
Description: (§1) The assays were performed in triplicates at three different days. […] The reaction was started by adding either a solution containing 0.016 units/μg protein of PDE3 (Abcam, Cambridge United Kingdom), or 0.022 units/μg protein of PDE5 (Sigma-Aldrich, St. Louis, MO, United States), to the Eppendorf tubes. Parallels for cAMP-metabolism included PDE3 only and parallels for cGMP-metabolism included PDE5 only. Control samples were free of drug and was either with or without PDE3 or PDE5. This was done to assure that only the relevant PDE was responsible for breakdown of the cyclic nucleotide, as no other enzyme nor cellular material was added to the incubations. The incubation time was 30 min (see Table 2). Reaction was stopped by adding methanol to the tubes. Internal standard of cGMP/GMP or cAMP/AMP (Sigma-Aldrich, St. Louis, MO, United States, Germany and Toronto Research Chemicals Inc., Toronto, ON, Canada) were added to each sample. Five samples contained only known concentrations of cGMP/GMP or cAMP/AMP and served as calibrators. Samples were analyzed for cGMP/GMP and cAMP/AMP content, using MS.

[2] = molecular target: PDE5 (Homo sapiens, UniProt O76074); conditions: concentration needed to increase inhibition from 25% to 75%
Description: as §1

[3] = ref Walker (1999); cited from earlier work
[4] = molecular target: cGMP-efflux (ABCC5) (Homo sapiens, UniProt O15440); type: biochemical; conditions: for IC25–IC75 interval cGMP-efflux: concentration needed to increase inhibition from 25% to 75%
Description: (§2) Cellular extrusion was determined using the inside-out vesicle (IOV) method where erythrocytes from healthy, human donors were sampled. […] The erythrocytes were separated from plasma by centrifugation and washed. […] The membrane vesiculation was initiated by adding […] buffer to the cell suspension. After centrifugation, the suspension was forced through a syringe needle to enhance homogenization of the membranes. IOVs were separated from right side out vesicles (ROV) and unsealed erythrocyte membranes (ghosts) by ultracentrifugation overnight using a density gradient. The uppermost band was collected, washed, and resuspended. […] Batches of IOVs used in the parallels were made eight times, including blood from a total of 35 healthy donors.
(§3) The incubation solutions also included radioactive labeled [^3H]-cGMP and [^3H]-cAMP (Perkin Elmer, Boston, MA, United States), at a concentration of, respectively, 2 μM and 20 μM. […] Incubation time of 60 min was chosen to ensure sufficient quality of the samples for each parallel (Table 2). The transport was stopped by adding ice cold buffer. The IOVs were then filtered through a nitrocellulose membrane (Bio-Rad Laboratories, Feldkirchen, Germany), and the membrane was dried. The dried membranes were later added scintillation fluid and radioactivity was measured using a Packard TopCount NXT (Packard, Downers Grove, IL, United States).
(§4) Experiments determined total ATP-dependent cellular efflux of cGMP or cAMP from IOVs.

[5] = molecular target: T1, cAMP-efflux (ABCC4) (Homo sapiens, UniProt O15439); assay: biochemical; type: biochemical; conditions: for Inhibition of cAMP-efflux: 1.00 nM to 1.00 mM; for Inhibition of cAMP-efflux / IC50: 60 min, IOV; for IC25–IC75 interval cAMP-efflux: concentration needed to increase inhibition from 25% to 75%; for IC50: 20 μM [3H]-cAMP; for Ki: Cheng-Prusoff from IC50
T1 construct: from tissue; host or cells: human erythrocyte membranes (inside-out vesicles), pooled donors
T1 sequence (O15439 1-1325): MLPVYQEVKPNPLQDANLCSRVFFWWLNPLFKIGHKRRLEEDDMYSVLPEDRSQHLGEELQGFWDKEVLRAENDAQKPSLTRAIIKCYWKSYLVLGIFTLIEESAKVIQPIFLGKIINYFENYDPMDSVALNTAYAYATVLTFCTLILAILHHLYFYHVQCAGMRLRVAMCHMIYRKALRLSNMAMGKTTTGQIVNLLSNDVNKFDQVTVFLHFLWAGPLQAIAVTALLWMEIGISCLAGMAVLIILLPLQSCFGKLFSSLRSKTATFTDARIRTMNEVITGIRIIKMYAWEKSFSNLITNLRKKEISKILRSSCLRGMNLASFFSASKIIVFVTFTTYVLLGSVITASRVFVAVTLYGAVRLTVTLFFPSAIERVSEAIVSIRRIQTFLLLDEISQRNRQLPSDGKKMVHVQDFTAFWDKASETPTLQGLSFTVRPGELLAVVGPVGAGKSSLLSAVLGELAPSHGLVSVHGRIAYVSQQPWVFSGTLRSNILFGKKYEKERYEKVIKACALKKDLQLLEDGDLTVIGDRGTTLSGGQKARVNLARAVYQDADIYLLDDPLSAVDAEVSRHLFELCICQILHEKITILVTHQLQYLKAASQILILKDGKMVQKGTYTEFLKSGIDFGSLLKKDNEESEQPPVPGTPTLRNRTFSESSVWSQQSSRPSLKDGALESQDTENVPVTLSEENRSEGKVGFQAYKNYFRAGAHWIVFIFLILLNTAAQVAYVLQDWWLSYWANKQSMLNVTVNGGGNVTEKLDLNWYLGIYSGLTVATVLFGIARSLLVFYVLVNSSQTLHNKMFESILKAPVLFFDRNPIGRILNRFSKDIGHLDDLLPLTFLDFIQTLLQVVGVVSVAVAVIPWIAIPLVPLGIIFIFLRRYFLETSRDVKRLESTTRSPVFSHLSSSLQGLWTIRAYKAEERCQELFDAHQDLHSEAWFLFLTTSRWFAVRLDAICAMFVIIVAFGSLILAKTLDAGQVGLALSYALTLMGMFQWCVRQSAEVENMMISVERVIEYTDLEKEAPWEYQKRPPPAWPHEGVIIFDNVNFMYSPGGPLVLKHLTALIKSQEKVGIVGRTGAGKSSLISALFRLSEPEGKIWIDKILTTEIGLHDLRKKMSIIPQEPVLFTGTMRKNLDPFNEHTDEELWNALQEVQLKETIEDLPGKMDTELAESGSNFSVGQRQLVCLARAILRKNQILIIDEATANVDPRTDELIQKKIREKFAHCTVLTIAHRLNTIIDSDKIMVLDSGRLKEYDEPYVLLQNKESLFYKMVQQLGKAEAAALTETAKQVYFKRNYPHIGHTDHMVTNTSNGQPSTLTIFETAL
Description: as §2, §3, §4

cGMP-efflux (ABCC5), sequence (O15440 whole entry): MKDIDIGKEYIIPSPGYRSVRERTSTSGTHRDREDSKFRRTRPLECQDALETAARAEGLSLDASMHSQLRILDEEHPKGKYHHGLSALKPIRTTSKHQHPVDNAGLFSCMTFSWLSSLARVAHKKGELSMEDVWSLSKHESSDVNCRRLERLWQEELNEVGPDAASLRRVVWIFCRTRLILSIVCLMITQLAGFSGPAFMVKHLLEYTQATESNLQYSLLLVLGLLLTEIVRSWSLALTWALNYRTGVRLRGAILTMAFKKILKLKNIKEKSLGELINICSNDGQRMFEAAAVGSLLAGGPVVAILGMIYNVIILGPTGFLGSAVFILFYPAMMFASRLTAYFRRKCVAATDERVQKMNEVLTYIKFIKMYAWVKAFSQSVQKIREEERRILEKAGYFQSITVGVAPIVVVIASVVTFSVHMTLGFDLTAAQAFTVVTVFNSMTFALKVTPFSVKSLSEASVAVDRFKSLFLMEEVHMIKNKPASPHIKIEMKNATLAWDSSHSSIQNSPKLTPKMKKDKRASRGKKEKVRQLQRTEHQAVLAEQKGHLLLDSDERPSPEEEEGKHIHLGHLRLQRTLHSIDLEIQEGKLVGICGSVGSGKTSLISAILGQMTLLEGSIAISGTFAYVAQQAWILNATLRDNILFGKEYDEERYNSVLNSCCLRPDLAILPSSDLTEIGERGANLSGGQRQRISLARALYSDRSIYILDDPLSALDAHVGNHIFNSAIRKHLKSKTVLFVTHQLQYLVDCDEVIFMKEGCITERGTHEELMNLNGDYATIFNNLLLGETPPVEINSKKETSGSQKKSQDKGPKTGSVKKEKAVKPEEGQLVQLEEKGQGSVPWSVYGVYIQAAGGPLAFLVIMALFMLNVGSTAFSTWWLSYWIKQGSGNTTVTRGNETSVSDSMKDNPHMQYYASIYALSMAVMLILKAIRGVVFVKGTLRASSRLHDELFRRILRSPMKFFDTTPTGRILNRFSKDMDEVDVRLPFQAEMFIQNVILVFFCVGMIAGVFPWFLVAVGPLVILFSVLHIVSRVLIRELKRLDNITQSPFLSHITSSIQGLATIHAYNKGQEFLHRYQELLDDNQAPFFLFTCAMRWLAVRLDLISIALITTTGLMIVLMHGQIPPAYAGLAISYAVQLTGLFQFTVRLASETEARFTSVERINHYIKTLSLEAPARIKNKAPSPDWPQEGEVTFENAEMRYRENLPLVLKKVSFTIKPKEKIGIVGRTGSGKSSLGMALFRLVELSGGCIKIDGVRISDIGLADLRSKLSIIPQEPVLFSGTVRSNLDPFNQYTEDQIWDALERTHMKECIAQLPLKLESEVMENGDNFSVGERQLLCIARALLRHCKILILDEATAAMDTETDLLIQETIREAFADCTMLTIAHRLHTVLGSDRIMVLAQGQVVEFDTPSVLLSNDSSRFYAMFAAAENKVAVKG

CCCc1nn(C)c2c(=O)[nH]c(-c3cc(S(=O)(=O)N4CCN(C)CC4)ccc3OCC)nc12 [Sildenafil]
IC25–IC75 interval PDE5 ([2]; 20°C): 0.132 ± 0.048 µM
IC25–IC75 interval PDE5 ([2]; 20°C, listed as sildenafil): 0.132 ± 0.048 µM
IC25–IC75 interval PDE5 ([2]; 24°C): 0.098 ± 0.012 µM
IC25–IC75 interval PDE5 ([2]; 24°C, listed as sildenafil): 0.098 ± 0.012 µM
IC25–IC75 interval PDE5 ([2]; 28°C): 0.083 ± 0.008 µM
IC25–IC75 interval PDE5 ([2]; 32°C): 0.060 ± 0.006 µM
IC25–IC75 interval PDE5 ([2]; 34°C): 0.055 ± 0.004 µM
IC25–IC75 interval PDE5 ([2]; 37°C): 0.038 ± 0.000 µM
Protein binding [3]: 94–96%
IC25–IC75 interval cGMP-efflux ([4]; 20°C): 19.2 ± 8.45 µM
IC25–IC75 interval cGMP-efflux ([4]; 24°C): 11.4 ± 4.73 µM
IC25–IC75 interval cGMP-efflux ([4]; 28°C): 12.0 ± 1.96 µM
IC25–IC75 interval cGMP-efflux ([4]; 32°C): 9.76 ± 3.99 µM
IC25–IC75 interval cGMP-efflux ([4]; 34°C): 13.5 ± 1.74 µM
IC25–IC75 interval cGMP-efflux ([4]; 37°C): 23.6 ± 9.08 µM
Inhibition of cAMP-efflux ([5]; 20°C): neither of the drugs were able to inhibit cAMP-efflux
Inhibition of cAMP-efflux ([5]; 24°C): neither of the drugs were able to inhibit cAMP-efflux
IC25–IC75 interval cAMP-efflux ([5]; 28°C): 13.8 ± 3.85 µM
IC25–IC75 interval cAMP-efflux ([5]; 32°C): 20.0 ± 4.27 µM
IC25–IC75 interval cAMP-efflux ([5]; 34°C): 19.8 ± 1.82 µM
IC25–IC75 interval cAMP-efflux ([5]; 37°C): 27.1 ± 9.36 µM

CCCc1nc(C)c2c(=O)[nH]c(-c3cc(S(=O)(=O)N4CCN(CC)CC4)ccc3OCC)nn12 [Vardenafil]
IC25–IC75 interval PDE3 ([1]; 20°C): 709 ± 105 µM
IC25–IC75 interval PDE3 ([1]; 24°C): 148 ± 31.9 µM
IC25–IC75 interval PDE3 ([1]; 28°C): 128 ± 35.9 µM
IC25–IC75 interval PDE3 ([1]; 32°C): 107 ± 27.0 µM
IC25–IC75 interval PDE3 ([1]; 34°C): 72.1 ± 3.24 µM
IC25–IC75 interval PDE3 ([1]; 37°C): 61.0 ± 14.3 µM
IC50 ([1]; 20°C): 73.4 ± 26.3 µM
IC50 ([1]; 24°C): 55.5 ± 4.75 µM
IC50 ([1]; 28°C): 32.7 ± 11 µM
IC50 ([1]; 32°C): 40.5 ± 3.78 µM
IC50 ([1]; 34°C): 24.9 ± 5.73 µM
IC50 ([1]; 37°C): 16.5 ± 6.08 µM
Ki ([1]; 20°C): 3.36 ± 1.21 µM
Ki ([1]; 24°C): 2.54 ± 0.218 µM
Ki ([1]; 28°C): 1.5 ± 0.505 µM
Ki ([1]; 32°C): 1.85 ± 0.173 µM
Ki ([1]; 34°C): 1.14 ± 0.263 µM
Ki ([1]; 37°C): 0.757 ± 0.276 µM
IC25–IC75 interval PDE5 ([2]; 20°C): 0.103 ± 0.027 µM
IC25–IC75 interval PDE5 ([2]; 24°C): 0.074 ± 0.005 µM
IC25–IC75 interval PDE5 ([2]; 28°C): 0.049 ± 0.016 µM
IC25–IC75 interval PDE5 ([2]; 32°C): 0.062 ± 0.016 µM
IC25–IC75 interval PDE5 ([2]; 34°C): 0.028 ± 0.012 µM
IC25–IC75 interval PDE5 ([2]; 37°C): 0.059 ± 0.029 µM
IC25–IC75 interval cGMP-efflux ([4]; 20°C): 28.1 ± 14.6 µM
IC25–IC75 interval cGMP-efflux ([4]; 24°C): 13.0 ± 1.74 µM
IC25–IC75 interval cGMP-efflux ([4]; 28°C): 10.6 ± 2.75 µM
IC25–IC75 interval cGMP-efflux ([4]; 32°C): 18.0 ± 4.12 µM
IC25–IC75 interval cGMP-efflux ([4]; 34°C): 19.2 ± 3.16 µM
IC25–IC75 interval cGMP-efflux ([4]; 37°C): 12.6 ± 3.89 µM
Linear regression equation, IC50 inhibition of cGMP-efflux vs temperature ([4]; not told): y = 9.64 − 0.098x
Inhibition of cAMP-efflux ([5]; 20°C): neither of the drugs were able to inhibit cAMP-efflux
Inhibition of cAMP-efflux ([5]; 24°C): neither of the drugs were able to inhibit cAMP-efflux
IC50 ([5]; 28°C): 9.63 ± 5.79 µM
Ki ([5]; 28°C): 5.84 ± 3.51 µM
IC25–IC75 interval cAMP-efflux ([5]; 28°C): 17.3 ± 6.59 µM
IC50 ([5]; 32°C): 13 ± 1.69 µM
Ki ([5]; 32°C): 7.86 ± 1.02 µM
IC25–IC75 interval cAMP-efflux ([5]; 32°C): 27.3 ± 6.19 µM
IC50 ([5]; 34°C): 5.82 ± 0.685 µM
Ki ([5]; 34°C): 3.53 ± 0.415 µM
IC25–IC75 interval cAMP-efflux ([5]; 34°C): 19.9 ± 0.967 µM
IC50 ([5]; 37°C): 5.85 ± 0.51 µM
Ki ([5]; 37°C): 3.55 ± 0.311 µM
IC25–IC75 interval cAMP-efflux ([5]; 37°C): 30.9 ± 6.82 µM
Linear regression equation, IC50 inhibition of cAMP-efflux vs temperature ([5]; not told): y = 26.4 − 0.545x
